Results reported in ChEMBL document CHEMBL3137667, “[Drug-induced liver injury; fourteenth updated edition of the bibliographic database of liver injuries and related drugs]” (Gastroenterol Clin Biol, 2004).

Key:
[1] = human
[2] = human; remark: listed apart in the source
[3] = human; remark: listed apart in the source
[4] = human; remark: listed apart in the source
[5] = Highest frequency of moderate liver toxicity observed during clinical trials, expressed as a percentage. [column '% BIOL' in source]; conditions: human
[6] = human, serum
[7] = human; remark: listed apart in the source
[8] = human, serum; remark: listed apart in the source
[9] = Highest frequency of acute liver toxicity observed during clinical trials, expressed as a percentage. [column '% AIGUE' in source]; conditions: human
[10] = Comments (NB not yet translated). [column 'COMMENTAIRES' in source]; conditions: human
[11] = human, serum, 4383 h
[12] = human; remark: listed apart in the source
[13] = human; remark: listed apart in the source
[14] = human; remark: listed apart in the source
[15] = human; remark: listed apart in the source
[16] = Times to onset, minimal and maximal, observed in the indexed observations. [column 'DELAI' in source]; conditions: human
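Throughout, for Hepatotoxicity (association with vascular disease): count of indexed literature references reporting vascular liver injury in humans, e.g. peliosis hepatitis, hepatic veno-occlusive disease or Budd-Chiari syndrome.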
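Throughout, for Hepatotoxicity (benign tumour): value is a count of indexed literature references citing a benign tumour confirmed by histopathology.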
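Throughout, for Hepatotoxicity (choleostasis): human cholestatic liver injury, shown by histopathology or by peak ALT or AST elevation over alkaline phosphatase ratio below 2, value counts indexed literature reports.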
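Throughout, for Hepatotoxicity (chronic liver disease): chronic liver injury confirmed by histopathology or persistently raised serum aminotransferase activity beyond 6 months, value given as the count of indexed literature references.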
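Throughout, for Hepatotoxicity (cirrhosis): value is a count of indexed literature references reporting cirrhosis confirmed by histopathology.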
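Throughout, for Hepatotoxicity (cytolytic): human cytolytic liver injury, shown by histopathology or by a ratio above 5 of peak ALT or AST elevation to alkaline phosphatase elevation, value counts indexed references.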
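Throughout, for Hepatotoxicity (granulomatous hepatitis): value is a count of indexed literature references reporting granulomatous liver disease confirmed by histopathology.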
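Throughout, for Hepatotoxicity (malignant tumour): malignant tumour confirmed by histopathology, value gives the count of indexed literature references reporting it.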
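Throughout, for Hepatotoxicity (severe hepatitis): human clinical data: severe hepatitis, meaning potentially life-threatening liver failure or clinically observed cases, the value counts how many indexed literature references report it.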
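Throughout, for Hepatotoxicity (steatosis): steatosis confirmed by histopathology, value is the count of indexed references.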

| Molecule | Hepatotoxicity (benign tumour) [1] | Hepatotoxicity (granulomatous hepatitis) [2] | Hepatotoxicity (association with vascular disease) [3] | Hepatotoxicity (steatosis) [4] | Hepatotoxicity (moderate) [5] [%] | Hepatotoxicity (acute) [6] | Hepatotoxicity (cirrhosis) [7] | Hepatotoxicity (moderate) [8] | Hepatotoxicity (acute) [9] [%] | Hepatotoxicity (comment) [10] | Hepatotoxicity (chronic liver disease) [11] | Hepatotoxicity (cytolytic) [12] | Hepatotoxicity (malignant tumour) [13] | Hepatotoxicity (severe hepatitis) [14] | Hepatotoxicity (choleostasis) [15] | Hepatotoxicity (time to onset) [16] |
| --- | --- | --- | --- | --- | --- | --- | --- | --- | --- | --- | --- | --- | --- | --- | --- | --- |
| CN1CCN(CCCN2c3ccccc3Sc3ccc(C(F)(F)F)cc32)CC1 [TRIFLUOPERAZINE] | 0 | 0 | 0 | 0 | 0 | 5 | 1 | 2 | 0 | #CBP | 0 | 0 | 0 | 0 | 4 | 2 weeks - 8 years |
| Nc1ncnc2c1ncn2[C@@H]1O[C@H](CO)[C@@H](O)[C@@H]1O [VIDARABINE] | 0 | 0 | 0 | 0 | 17 | 0 | 0 | 5 | 0 | AGGRAVATION_HEPATITE_VIRALE | 0 | 0 | 0 | 1 | 0 | 1 week |
| ANISTREPLASE | 0 | 0 | 0 | 0 | 0 | 1 | 0 | 0 | 0 | HEMATOME_SOUS_CAPSULAIRE | 0 | 1 | 0 | 0 | 0 | 6 days |
| ETANERCEPT | 0 | 0 | 0 | 0 | 5 | 0 | 0 | 2 | 0 | CHOLECYSTITE | 0 | 0 | 0 | 0 | 0 | 4 weeks - 14 weeks |
| GONADOTROPIN, SERUM | 1 | 0 | 0 | 0 | 0 | 1 | 0 | 0 | 0 | HNF | 0 | 1 | 0 | 0 | 0 | 39 days - 6 months |
| INFLIXIMAB | 0 | 0 | 0 | 0 | 31.3 | 8 | 0 | 3 | 0 | CHOLANGITE CHOLECYSTITE REACTIVATION_HVB | 0 | 4 | 0 | 2 | 2 | 19 days - 19 months |
